Experimental data published in article PMC10166890, “Screening for DAX1/EWS‐FLI1 functional inhibitors identified dihydroorotate dehydrogenase as a therapeutic target for Ewing's sarcoma” (Cancer Medicine, 2023).

Tests used:
[1] = Plasma concentration‐time profile after single oral administration; assay type: in vivo, mouse; conditions: BALB/c mice
Procedure: First, we evaluated the plasma concentration‐time profile of K‐733 after single oral administration at dose ranges from 1 to 100 mg/kg in BALB/c mice (donors of SCID mice) for dose selection (Figure 8A). […] Therefore, we selected dose ranges from 10 to 100 mg/kg for in vivo studies.
Male BALB/cAnNCrlCrlj mice (6 weeks old) were purchased from Jackson Laboratories Japan (Yokohama, Japan). K-733, suspended in 0.5% (w/v) MC400 was orally administered at 1, 3, 10, and 100 mg/kg (n=2), and blood samples were collected from the tail vein at 0.5, 1, 2, 4, 7 and 24 h after administration. Mice were euthanized with carbon dioxide inhalation after the final blood sampling. Plasma was separated and stored frozen until use. The plasma concentration of K-733 was determined by liquid chromatography with tandem mass spectrometry (LC-MS). Plasma samples were pre-treated for protein precipitation, and the supernatant was subjected to liquid LC-MS. The analyte was separated on a C18 reverse-phase column (CAPCELL PAK C18 MG 3 μm, 3 mm I.D. × 35 mm; Osaka Soda). LC-MS detection was performed by electrospray ionization in a positive ion mode. The detected mass-to-charge ratio of K-733 was 482.95/92.75 (Q1/Q3). The lower limit of quantification (LLOQ) was 10 nM.

[2] = test system: EWS‐FLI1 target gene expression; assay: EWS‐FLI1 target gene expression in A‐673 tumors after 14‐day treatment; assay type: in vivo, mouse; conditions: after 14‐day oral treatment
Procedure: Total RNA was extracted using the RNeasy Plus Mini kit (Qiagen, Valencia, CA, USA) according to the manufacturer's protocol. cDNA was synthesized from 1 μg of total RNA using a SuperScript VILO cDNA synthesis kit (Thermo Fisher Scientific). Real‐time PCR was carried out using TaqMan Fast Universal PCR Master Mix (Thermo Fisher Scientific).
(§1) All animal studies were performed in accordance with Standards for Proper Conduct sof Animal Experiments at Kyowa Kirin Co., Ltd., under the approval of the company's Institutional Animal Care and Use Committee. Male C.B17/Icr‐scid/scidJcl (SCID) mice (5 weeks old) were purchased from CREA Japan (Tokyo, Japan). K‐733 was suspended in 0.5% (w/v) methylcellulose 400 (MC400; FUJIFILM Wako Pure Chemical) and orally administered to mice once daily. Ewing's cells were suspended in Dulbecco's phosphate‐buffered saline (DPBS; Thermo Fisher Scientific, Waltham, MA, USA) and injected subcutaneously into the ventral side of mice at 5 × 10^6 cells/0.1 mL/mouse for A‐673 and TC‐71 and 1 × 10^7 cells/0.1 mL/mouse for CADO‐ES1 and SK‐ES‐1. In experiments using TC‐71 cells, 0.3 mg of anti‐asialo GM1 antibody (FUJIFILM Wako Pure Chemical) was injected intraperitoneally 1 day before TC‐71 injection. The tumor size and body weight were measured every 3 or 4 days. The tumor volume was calculated using the following equation: Tumor volumemm^3=DL×DS×DS×1/2, where DL and DS represent the long diameter and short diameter, respectively. The pharmacokinetic analysis of K‐733 is described in Materials and Methods S2.
FIGURE 8 K‐733 exerts an anti‐tumor effect in mice bearing Ewing's sarcoma. (A) Plasma concentration‐time profiles of K‐733 in mice after a single oral administration of K‐733. Each plot represents the mean of duplicate measurements. (B) Antitumor effect of K‐733 on A‐673 cells. Indicated doses of K‐733 were orally administered once daily for 14 days. Each plot represents the mean of n = 5 and SE. C, Influence of K‐733 on EWS‐FLI1‐related genes. Tumors were sampled after 14 days oral administration of K‐733. Each plot represents the mean of n = 5 and SE. […]

CADO‐ES1 = CADO‐ES1 xenograft in SCID mice; assay type: in vivo, mouse; conditions: 10, 30, or 100 mg/kg orally once daily
Procedure: as §1

TC‐71 cells = assay: Cell viability assay (XTT), TC‐71 cells; assay type: cell-based, human; conditions: 72 h
Procedure: AsPC‐1, A‐673, and TC‐71 cells were seeded in 96‐well plates (800 cells/well for AsPC‐1, 2000 cells/well for A‐673, and 400 cells/well for TC‐71) and cultured overnight. Vehicle (DMSO) or a test compound diluted with the medium was then added to the wells (final DMSO concentration was 0.3%), and 72 h later, 2,3‐bis[2‐methoxy‐4‐nitro‐5‐sulfophenynl]‐2H‐tetrazolium‐5‐carboxanilide inner salt (XTT) reagent (Roche Diagnostics, Mannheim, Germany) was added to the medium. After 3‐h incubation at 37°C, the formation of the formazan dye was determined by measuring absorbance at 490 and 650 nm using a SpectraMax 340PC system (Molecular Devices, Sunnyvale, CA, USA).

Cc1nc(-c2ccc(C3c4[nH]c5ccc(Cl)cc5c4CCN3C(=O)Oc3ccccc3)cc2)no1 (stereo not shown) [K-733, phenyl 6‐chloro‐1‐(4‐(5‐methyl‐1,2,4‐oxadiazol‐3‐yl)phenyl)‐1,3,4,9‐tetrahydro‐2H‐pyrido[3,4‐b]indole‐2‐carboxylate]
Plasma concentration, dose dependence ([1]; single oral 1 to 100 mg/kg): increased dose‐dependently
Plasma concentration relative to IC50 (DAX1 reporter and DHODH inhibition) ([1]; single oral ≥10 mg/kg): higher than the IC50 value
DAX1 mRNA levels in tumors [2]: no marked effect
mRNA levels of IGFBP3 and DKK1 in tumors [2]: increased
mRNA levels of NKX2‐2 in tumors [2]: decreased
Tumor growth, CADO‐ES1 xenograft (CADO‐ES1): reduced dose‐dependently
Cell viability of TC‐71 cells (TC‐71 cells): decreased the viability
